Assays:
[1] = test system: recombinant protein USTB-05-C (MlrC); assay: in vitro; conditions: Sphingopyxis sp. USTB-05, isolated enzyme, pH 7.3
[2] = test system: recombinant protein USTB-05-C (MlrC); conditions: pH 7.3

## C/C=C(/C(=O)N[C@@H](C(=O)O)[C@H](C)C(=O)N[C@@H](CCCNC(=N)N)C(=O)O)N(C)C(=O)CC[C@@H](NC(=O)[C@@H](C)[C@@H](N)/C=C/C(C)=C/[C@H](C)[C@H](Cc1ccccc1)OC)C(=O)O [linear NOD]
[1]
  metabolised at 4 h: ~98.7%
[2]
  time to complete removal (degradation) of linear NOD by purified MlrC: ≤ 6 h

Source: article PMC9506587 (Toxins, 2022)
